The subject of test [1] is C. tropicalis (NCPF #3111). The experiment in a line: Broth microdilution test (MIC, colony counts). The format is cell-based. Particulars: for MIC: Candida tropicalis, NCPF3111, no antibody. The procedure:
(§1) Non-Aspergillus yeast strains used (Table 1) were plated onto Sabouraud's dextrose agar (Oxoid, Basingstoke, UK) and incubated at 37° C. for 24 hours. The strains were identified with the API 20C system (BioMerieux, Marcy L'Etoile, France). If needed, microscopical examinations of morphology on cornmeal agar (Oxoid) was used to confirm the identity.
(§2) For non-Aspergillus strains, suspensions were prepared from individual colonies (diameter≧1 mm) in 5 ml of sterile 0.85% saline to a density of […] as established by counting on a haemocytometer grid. For Aspergillus strains, see below.
(§3) RPMI broth was prepared from RPMI 1640 broth medium (Sigma R7880) supplemented with 0.3 g of glutamine per litre, buffered with 34.6 g of morpholine propanesulfonic acid (MOPS) per litre and adjusted to ph 7.0.
(§4) Twofold dilutions ([…] for amphotericin B and 400 to 0.4 mg/ml for fluconazole) were prepared in RPMI broth starting from the two stock solutions. A 100 μl suspension of the inoculum diluted 1 in 10 (equivalent to 1×10^3 cfu) was added to the microtiter plates. To this was added 50 μl of the antifungal and then 50 μl of the antibody. Antibody was either neat (0.4 mg/mil), or diluted to 1/10or 1/100. When antibody was absent, the 50 μl volume was made up by RPMI. The total volume in each well was 200 μl. Final concentrations of antibody in the experiments were: 100 μg/ml (“neat”), 10 μg/ml (“ 1/10antibody”) or 1 μg/ml (“ 1/100antibody”).
(§5) Plates were incubated at 37° C. overnight and the minimum inhibitory concentration (MIC) defined by the lower concentration inhibiting growth.
(§6) Colony counts were determined for the wells where there was a visual reduction in yeast growth. Results were represented as colony forming units per ml of broth (cfu/ml).
A general note: Dilution methods test growth across graded concentrations, often in twofold steps.

The subject of test [2] is C. parapsilosis (NCPF #3104). The experiment in a line: Broth microdilution test (MIC, colony counts). It is filed as cell-based. Particulars: for MIC: Lodderomyces parapsilosis, NCPF3104, no antibody; for Colony counts: no antibody. The procedure:
as §1, §2, §3, §4, §5, §6

The subject of test [3] is C. krusei (FA/157). The test can be described thus: Broth microdilution test (MIC, colony counts). It is filed as cell-based. Particulars: for MIC: Pichia kudriavzevii; for MIC / Colony counts: no antibody. The procedure: as §1, §2, §3, §4, §5, §6
For test [4], the system named is Torulopsis glabrata (NCPF #3240). The experiment in a line: Broth microdilution test (MIC, colony counts). The format is cell-based. Particulars: T. glabrata; for MIC: Nakaseomyces glabratus, NCPF3240. How it is done: as §1, §2, §3, §4, §5, §6
The test system of test [5] is Candida albicans (outbreak). The experiment in a line: Broth microdilution test (MIC, colony counts). It is filed as cell-based. How it is done: as §1, §2, §3, §4, §5, §6
The subject of test [6] is C. albicans outbreak strain. The test can be described thus: Animal synergy: yeast counts in tissues of infected mice. The format is in vivo, CD1 mice. Particulars: Group 1: amphotericin B 0.6 mg/kg only, 48 hours.
Method: Thirty CD1 mice (each weighing about 25 g) were injected with 100 μl of C. albicans outbreak strain (equivalent to 1.5×10^7 cfu) and after 2 hours the mice were split into three groups and injected with:
(A) Group 1—100 μl solution of 10 mM ammonium acetate (AAT; pH 9), followed by 100 μl amphotericin B equivalent to 0.6 mg/kg in a 5% (w/v) glucose solution;
(B) Group 2—100 μl solution of 10 mM AAT (pH 9) solution containing 500 μg anti-hsp90 antibody, followed by 100 μl amphotericin B equivalent to 0.6 mg/kg in a 5% (w/v) glucose solution; and
(C) Group 3—100 μl solution of 10 mM AAT (pH 9) containing 50 μg anti-hsp90 antibody, followed by 100 μl amphotericin B equivalent to 0.6 mg/kg in a 5% (w/v) glucose solution.
The animals were culled after 48 hours and yeast counts on Sabouraud's plates of liver, spleen and kidney tissue performed.
In test [7] the test system is C. albicans (Fluconazole resistant). The experiment in a line: Broth microdilution test (MIC, colony counts). It is filed as cell-based, Candida albicans. The procedure: as §1, §2, §3
Twofold dilutions ([…] for amphotericin B and 400 to 0.4 mg/ml for fluconazole) were prepared in RPMI broth starting from the two stock solutions. A 100 μl suspension of the inoculum diluted 1 in 10 (equivalent to 1×10^3 cfu) was added to the microtiter plates. To this was added 50 μl of the antifungal and then 50 μl of the antibody. Antibody was either neat (0.4 mg/mil), or diluted to 1/10or 1/100. When antibody was absent, the 50 μl volume was made up by RPMI. […]
Colony counts were determined for the wells where there was a visual reduction in yeast growth. […]

Test [8] relates to Aspergillus fumigatus (NCPF #2109). The experiment in a line: Aspergillus studies, MIC in microtitre plates. It is filed as cell-based. Particulars: NCPF2109, formulation buffer only, read-out: MIC to Amphotericin B.
Method: (§7) Isolates of Aspergillus fumigatus, Aspergillus flavus and Aspergillus niger were prepared in RPMI 1640 medium. The suspensions were prepared to give a final inoculum of 2×10^4 conidia per ml and these were dispensed in 100 μl aliquots into flat-bottomed microtitre plates. A double dilution series of Amphotericin B ranging from 250 μg/nil to 0.75 μg/ml was prepared and dispensed to the appropriate wells. Mycograb was added to each of the wells at a final concentration of 100 μg/ml in formulation buffer. A control series was also prepared for each isolate which contained formulation buffer only.
The subject of test [9] is Aspergillus niger. The experiment in a line: Aspergillus studies, MIC in microtitre plates. The format is cell-based. Particulars: formulation buffer only, read-out: MIC to Amphotericin B.
Method: as §7
The test system of test [10] is Aspergillus flavus. The test can be described thus: Aspergillus studies, MIC in microtitre plates. The format is cell-based. Particulars: formulation buffer only, read-out: MIC to Amphotericin B.
Method: as §7
Where [11] appears, read: read-out: MIC to amphotericin B.
[12] abbreviates: antibody 0.313 μg/ml, no antifungal agent.

≈ marks a conversion by molar mass, not a printed value. Like-named read-outs stand apart in the source and are kept apart here.

As for `OC(Cn1cncn1)(Cn1cncn1)c1ccc(F)cc1F` [Fluconazole, fluconazole], the MIC (usually the least concentration at which growth counts as inhibited) in test [1] (read-out: MIC to fluconazole) stood at 3.12 µg/mL (≈ 10.2 µM); in [2] (read-out: MIC to fluconazole) it was 6.25 µg/mL (≈ 20.4 µM); in test [3] (read-out: MIC to fluconazole), 100 µg/mL (≈ 327 µM); in test [4] (no antibody, read-out: MIC to fluconazole) it was 1.56 µg/mL (≈ 5.09 µM). Further, the Colony counts in [1] (fluconazole 0.09 μg/ml, no antibody) was 5 × 10^5 cfu/ml; in [2] (fluconazole 3.13 μg/ml) it was 2.6 × 10^6 cfu/ml; in test [3] (fluconazole 25 μg/ml) it was 3.2 × 10^7 cfu/ml; in [3] (fluconazole 50 μg/ml), 1.6 × 10^7 cfu/ml; in [5] (C. albicans outbreak strain, fluconazole 0.09 μg/ml, no antibody) it was 3.6 × 10^5 cfu/ml.

In the case of `C[C@@H]1[C@H](O)[C@@H](C)/C=C/C=C/C=C/C=C/C=C/C=C/C=C/[C@H](O[C@@H]2O[C@H](C)[C@@H](O)[C@H](N)[C@@H]2O)C[C@@H]2O[C@](O)(C[C@@H](O)C[C@@H](O)[C@H](O)CC[C@@H](O)C[C@@H](O)CC(=O)O[C@H]1C)C[C@H](O)[C@H]2C(=O)O` [Amphotericin B, amphotericin B], the “Colonies of C. albicans in tissue” value is recorded as 6.80 ± 0.916 cfu/ml, in log10 in test [6] (Kidney); 4.26 ± 1.42 cfu/ml, in log10 in [6] (Liver); 4.18 ± 1.18 cfu/ml, in log10 in test [6] (Spleen). Besides, the MIC came to 0.312 µg/mL (≈ 0.338 µM) in test [7] (Candida albicans, C. albicans fluconazole resistant, no antibody, read-out: MIC to amphotericin B); 2.5 µg/mL (≈ 2.71 µM) in test [8]; 2.5 µg/mL (≈ 2.71 µM) in test [9]; 0.078 µg/mL (≈ 0.0844 µM) in [1] (setting [11]); 0.625 µg/mL (≈ 0.676 µM) in test [2] (setting [11]); 0.625 µg/mL (≈ 0.676 µM) in test [3] (setting [11]). The MIC in [4] (no antibody, read-out: MIC to amphotericin B) amounted to 0.039 µg/mL (≈ 0.0422 µM); in [5] (Candida albicans, C. albicans (outbreak), no antibody, read-out: MIC to amphotericin B), 0.156 µg/mL (≈ 0.169 µM); in [10], 2.5 µg/mL (≈ 2.71 µM). The Colony counts is listed as 3 × 10^6 cfu/ml in test [2] (amphotericin B 0.313 μg/ml); 6.3 × 10^3 cfu/ml in test [2] (amphotericin B 0.626 μg/ml); 1.1 × 10^7 cfu/ml in test [4] (amphotericin B 0.009 μg/ml, no antibody).

B1: antibody: antibody of SEQ ID NO: 2 (heavy, light and spacer domains) recognising Candida albicans hsp90 epitope SEQ ID NO: 1, expressed in E. coli (protein)
scFv: HMAEVQLVESGAEVKKPGESLRISCKGSGCIISSYWISWVRQMPGKGLEWMGKIDPGDSYINYSPSFQGHVTISADKSINTAYLQWNSLKASDTAMYYCARGGRDFGDSFDYWGQGTLVTVSSGGGGSGGGGSGGGGSDVVMTQSPSFLSAFVGDRITITCRASSGISRYLAWYQQAPGKAPKLLIYAASTLQTGVPSRFSGSGSGTEFTLTINSLQPEDFATYYCQHLNSYPLTFGGGTKVDIKRAA
Regarding B1, the “Effect of antibody on its own against yeast growth” value was 6 × 10^6 cfu/ml in test [7] (C. albicans (fluconazole resistant), antibody 0.313 μg/ml, no antifungal agent); 6.0 × 10^5 cfu/ml in test [1] (setting [12]); 2.6 × 10^4 cfu/ml in test [2] (setting [12]); 1.6 × 10^6 cfu/ml in test [3] (setting [12]); 1.2 × 10^7 cfu/ml in [4] (setting [12]); 5.6 × 10^6 cfu/ml in test [5] (C. albicans (outbreak), antibody 0.313 μg/ml, no antifungal agent).

These data come from US20030180285A1, “Treatment of fungal infections with polyene or beta glucan synthase inhibitor anti-fungals combined with anti hsp90 antibodies” (priority 2000, published 2003).
